Values of other authors as cited in patent US20220387454A1, “NUTRITIONAL COMPOSITION FOR VISUAL FUNCTION” (OMNIACTIVE HEALTH TECHNOLOGIES LIMITED, priority 2019, published 2022).

System: patients with dry eye syndrome (DES) refractory to conventional treatment with vitamin D deficiency
Settings: intramuscular 200,000 IU, p<0.05

C=C1CC[C@H](O)C/C1=C/C=C1\CCC[C@]2(C)[C@@H]([C@H](C)CCCC(C)C)CC[C@@H]12 [cholecalciferol]
Eyelid margin hyperemia (2, 6, and 10 weeks): showed improvement | Severity of symptoms (2, 6, and 10 weeks): showed improvement | Tear break-up time (TBUT) (2 and 6 weeks vs pre-treatment): showed an improvement | Tear secretion test (2 and 6 weeks vs pre-treatment): showed an improvement | Fluorescein staining score (FSS) (2 weeks vs pre-treatment): decreased | Ocular surface disease index (OSDI) (2 weeks vs pre-treatment): decreased | Visual analogue pain score (VAS) (2 weeks vs pre-treatment): decreased
